{
  "source": "patent US20200318195A1",
  "about": "“Bivalent Nucleic Acid Ligands and Uses Therefor” (Carnegie Mellon University, priority 2017, published 2020)",
  "key": {"R11A [1]": {"test_system": "R11A", "experiment": "Steady-state fluorescent measurements of ligand with R11A", "type": "binding", "details": "for reduction of emission signals upon the addition of R11A: 0.1x PBS; for fluorescent signals of ligand with R11A in presence of pentamidine: 2.5 uM of pentamidine", "method": "(§1) FIG. 14. The effects of ligand orientation (LG2P), mismatched R11U and single-stranded targets (WS+CS). Inset: Fluorescent spectra of the corresponding samples after addition of 2.5 μM of pentamidine.\nTo further corroborate the UV-Vis and CD findings, we measured the fluorescent signals of ligands with and without RNA targets following an excitation at 330 nm (λmax of E-base). We observed a significant fluorescent quenching of LG3 compared to that of LG1 and LG2. Such a drastic reduction in the fluorescent signals could be due to photo-induced electron transfer quenching, which is expected to be most efficient for LG3 since the fluorophore (E) is stacked between two other J-bases. […] With all three ligands, the emission signals were further reduced upon the addition of R11A, but most dramatically with LG2, 60% reduction with LG2 as compared to 35 and 33% with LG1 and LG3, respectively. We observed a similar fluorescent quenching pattern upon the incubation of LG2 with R11U, [WS+CS], HP, and LG2P with R11A (FIG. 14)—although less dramatic as compared to that of LG2 with R11A. […] To test the hypothesis that the nonspecific binding of ligand to RNA can lead to fluorescent quenching, we incubated the respective RNA targets with pentamidine prior to adding LG2 and vice versa.\nThe samples were prepared in 0.1× PBS buffer. All spectra represent an average of at least fifteen scans collected at 100 nm/min rate between 200 and 375 nm, in a 1-cm path-length cuvette at 25° C. CD spectrum from buffer solution was subtracted from the sample spectra, which were then smoothed via a five-point adjacent averaging algorithm. Steady-State fluorescent measurements. All steady-state fluorescence samples were prepared by mixing ligands with RNA at the indicated concentrations in 0.1× PBS buffer, and annealed by incubation at 90° C. for 5 min followed by a gradual cooling to 37° C. The samples were incubated at 37° C. for 1 hr before the measurements. Steady-state fluorescence data were collected at 25° C. by Cary Eclipse Fluorescence Spectrometer. (εex=330 nm, εem=340-600 nm) with slit size."}, "R11A [2]": {"test_system": "R11A", "experiment": "CD of ligand with perfect-match rCAG hairpin R11A", "type": "binding", "details": "0.1x PBS", "method": "FIG. 12. CD titration of LG2 with R11A. The concentration of R11A was 0.5 μM and those of LG2 were X: 0, 1.5, 2.5, 3.5, 4.5, 5.5, 6.5, 8.5, and 11.5 μM. After the addition of LG2 to R11A, the mixtures were incubated at 37° C. for 30 min prior to the acquisition of data at 25° C.\n(§2) FIG. 13. CD spectra of LG2 with the (A) mismatched R11U, (B) single-stranded WS and CS, and (C) double-stranded HP containing a single binding-site, as well as that of (D) LG2P with R11A. CD spectra of RNAs (line) and that of the [RNA+ligand] mixtures (dash).\nA series of model RNA targets were chosen for binding study (FIG. 11). The R11X series comprised 24 rCXG-repeats (FIG. 11 (A)), which, upon adopting a secondary hairpin structure, provided 11 binding sites for ligands (FIG. 11(B)). R11A contained the perfect-match (A-A), while R11U and R11C contained the respective U—U and C—C mismatches for ligand binding. […]\n(§3) The samples were prepared in 0.1× PBS buffer. […] All steady-state fluorescence samples were prepared by mixing ligands with RNA at the indicated concentrations in 0.1× PBS buffer, and annealed by incubation at 90° C. for 5 min followed by a gradual cooling to 37° C. […] Steady-state fluorescence data were collected at 25° C. by Cary Eclipse Fluorescence Spectrometer. […]"}, "R11U [3]": {"test_system": "R11U", "experiment": "CD of ligand with mismatched R11U", "type": "binding", "details": "0.1x PBS", "description": "as §2\n(§4) A series of model RNA targets were chosen for binding study (FIG. 11). The R11X series comprised 24 rCXG-repeats (FIG. 11 (A)), which, upon adopting a secondary hairpin structure, provided 11 binding sites for ligands (FIG. 11(B)). R11A contained the perfect-match (A-A), while R11U and R11C contained the respective U—U and C—C mismatches for ligand binding. R11G (X=G) was not ascertained since it has shown to be capable of forming G-quadruplex as well as hairpin structures, which could confound the interpretation of the experimental results. Single-stranded RNA targets, WS (Watson Strand) and CS (Crick Strand), with the LG2 binding-site underlined (FIG. 11 (C)), as well as double-stranded hairpin HP containing a single ligand binding-site (FIG. 11 (D)), were also examined. […]\nas §3"}, "R11C": {"test_system": "R11C", "experiment": "CD of ligand with mismatched R11C", "type": "binding", "details": "0.1x PBS; data not shown", "description": "as §4, with “examined. The samples were prepared by incubating the pre-annealed RNAs with respective ligands in 0.1× PBS buffer (1 mM NaPi, 13.7 mM NaCl, 0.27 mM KCl; pH 7.4) at 37° C.” for “examined.”\nas §3"}, "[4]": {"test_system": "single-stranded WS and CS", "experiment": "CD of ligand with single-stranded RNA targets", "type": "binding", "details": "0.1x PBS", "description": "as §2, §4, §3"}, "[5]": {"test_system": "double-stranded HP containing a single binding-site", "experiment": "CD of ligand with hairpin containing a single binding-site", "details": "0.1x PBS", "description": "as §2, §4, §3"}, "R11U [6]": {"test_system": "R11U", "experiment": "Steady-state fluorescent measurements of ligand with R11U", "type": "binding", "method": "as §1\n(§5) To further corroborate the UV-Vis and CD findings, we measured the fluorescent signals of ligands with and without RNA targets following an excitation at 330 nm (λmax of E-base). We observed a significant fluorescent quenching of LG3 compared to that of LG1 and LG2. Such a drastic reduction in the fluorescent signals could be due to photo-induced electron transfer quenching, which is expected to be most efficient for LG3 since the fluorophore (E) is stacked between two other J-bases. […] With all three ligands, the emission signals were further reduced upon the addition of R11A, but most dramatically with LG2, 60% reduction with LG2 as compared to 35 and 33% with LG1 and LG3, respectively. […]\nas §3"}, "[WS+CS]": {"test_system": "[WS+CS]", "experiment": "Steady-state fluorescent measurements of ligand with single strands", "type": "binding", "method": "as §1, §5, §3"}, "HP": {"test_system": "HP", "experiment": "Steady-state fluorescent measurements of ligand with HP", "type": "binding", "details": "excitation at 330 nm", "description": "To further corroborate the UV-Vis and CD findings, we measured the fluorescent signals of ligands with and without RNA targets following an excitation at 330 nm (λmax of E-base). We observed a significant fluorescent quenching of LG3 compared to that of LG1 and LG2. Such a drastic reduction in the fluorescent signals could be due to photo-induced electron transfer quenching, which is expected to be most efficient for LG3 since the fluorophore (E) is stacked between two other J-bases. […] With all three ligands, the emission signals were further reduced upon the addition of R11A, but most dramatically with LG2, 60% reduction with LG2 as compared to 35 and 33% with LG1 and LG3, respectively. We observed a similar fluorescent quenching pattern upon the incubation of LG2 with R11U, [WS+CS], HP, and LG2P with R11A (FIG. 14)—although less dramatic as compared to that of LG2 with R11A. […]\nas §3"}, "R11A [7]": {"test_system": "R11A", "experiment": "NMR titration of ligand with R11A", "type": "binding", "details": "R11A 0.1 mM, 0.1x PBS", "method": "FIG. 15. NMR titration of LG2 with R11A. The concentration of R11A was 0.1 mM. Aliquots of LG2 at the indicated molar ratios were added to R11A and incubated at 37° C. for 15 min prior to data acquisition. Solvent-exchangeable protons are indicated by dashed lines, and nonexchangeable protons by vertical solid lines.\nTo gain insight into the binding mode of LG2, we performed a series of multinuclear and multidimensional NMR experiments with LG2, R11A, and in combination. The samples were prepared in the same 0.1× PBS buffer as before, containing a 9:1 volume ratio of H2O:D2O The NOESY data were collected at 300, 200, and 100 ms mixing times to obtain proton-proton distance, while COSY experiments were performed to map the proton spin-system of each residue. The expectation was that H-bonding interactions between LG2 and R11A would result in line-broadening and downfield chemical shift of the imino proton signals of the canonical G-C/C-G pairs due to base-pair opening, and in an emergence of a new set of imino proton signals due to the formation of H-bonds between ligand and RNA. […] Variable-temperature measurements further supported this chemical shift assignment, showing a gradual decay in peak intensity with increasing temperature while that of the non-exchangeable protons remained fairly constant. Partial assignments of the nucleobase protons were made by NOESY experiments. […]"}},
  "data": [
    {"substance": "H-FIE-Lys-NH2 [LG1]", "values": [
      {"measurement": "reduction of emission signals upon the addition of R11A", "setting": "R11A [1]; excitation at 330 nm", "result": 35, "unit": "%"}
    ]},
    {"substance": "H-EFI-Lys-NH2 [LG2]", "values": [
      {"measurement": "differential in CD amplitude with R11A, among the ligand series", "setting": "R11A [2]; signals at ~270 nm", "result": "largest differential in CD amplitude"},
      {"measurement": "change in CD signals after incubation with mismatched R11U", "setting": "R11U [3]", "result": "no significant differences in the CD signals"},
      {"measurement": "change in CD signals after incubation with mismatched R11C", "setting": "R11C", "result": "no significant differences in the CD signals"},
      {"measurement": "change in CD signals after incubation with single-stranded WS and CS", "setting": "[4]", "result": "no significant differences in the CD signals"},
      {"measurement": "change in CD signals after incubation with HP", "setting": "[5]", "result": "no significant differences in the CD signals"},
      {"measurement": "fluorescent signals of ligand with R11A in presence of pentamidine", "setting": "R11A [1]", "result": "remained suppressed"},
      {"measurement": "reduction of emission signals upon the addition of R11A", "setting": "R11A [1]; excitation at 330 nm", "result": 60, "unit": "%"},
      {"measurement": "fluorescent signals of ligand with R11U in presence of pentamidine", "setting": "R11U [6]; 2.5 uM of pentamidine", "result": "fully recovered"},
      {"measurement": "fluorescent quenching with R11U compared to that of LG2 with R11A", "setting": "R11U [6]; excitation at 330 nm", "result": "less dramatic"},
      {"measurement": "fluorescent signals of ligand with [WS+CS] in presence of pentamidine", "setting": "[WS+CS]; 2.5 uM of pentamidine", "result": "fully recovered"},
      {"measurement": "fluorescent quenching with [WS+CS] compared to that of LG2 with R11A", "setting": "[WS+CS]; excitation at 330 nm", "result": "less dramatic"},
      {"measurement": "fluorescent quenching with HP compared to that of LG2 with R11A", "setting": "HP", "result": "less dramatic"},
      {"measurement": "new imino proton signals in the 10-20 ppm regimes (H-bond formation between ligand and RNA)", "setting": "R11A [7]", "result": "did not observe any new imino proton signals"},
      {"measurement": "imino proton signal of R11A upon the addition of ligand", "setting": "R11A [7]; 9:1 H2O:D2O", "result": "gradually broadened and downfield-shifted"}
    ]},
    {"substance": "H-IPE-Lys-NH2 [LG2P]", "values": [
      {"measurement": "change in CD signals after incubation with R11A", "setting": "R11A [2]", "result": "no significant differences in the CD signals"},
      {"measurement": "fluorescent signals of ligand with R11A in presence of pentamidine", "setting": "R11A [1]", "result": "fully recovered"},
      {"measurement": "fluorescent quenching with R11A compared to that of LG2 with R11A", "setting": "R11A [1]; excitation at 330 nm", "result": "less dramatic"}
    ]},
    {"substance": "H-IEF-Lys-NH2 [LG3]", "values": [
      {"measurement": "reduction of emission signals upon the addition of R11A", "setting": "R11A [1]; excitation at 330 nm", "result": 33, "unit": "%"}
    ]}
  ]
}
